Tests used:
Phaedon cochleariae = Phaedon cochleariae spray test; settings: 100 g/ha; after 7 days
Spodoptera frugiperda = Spodoptera frugiperda spray test; format: in vivo; settings: after 7 days
Tetranychus urticae = Tetranychus urticae spray test, OP-resistant (bean leaf discs); format: in vivo; settings: 100 g/ha; after 6 days
Procedure: After 6 days, the efficacy in % is determined.

Row | Compound | efficacy (Phaedon cochleariae) | efficacy (Spodoptera frugiperda; 100 g/ha) | efficacy (Tetranychus urticae) | efficacy (Spodoptera frugiperda; 20 g/ha)
1 | CC(=O)N(C)Cc1cc(-c2cnn(-c3c(Cl)cc(C(F)(C(F)(F)F)C(F)(F)F)cc3Cl)c2)ccc1Br [Ia-165] | 100% | 100% | 90% | 
2 | O=C(NCc1cc(-c2cn(-c3c(Cl)cc(C(F)(C(F)(F)F)C(F)(F)F)cc3Cl)nn2)ccc1Cl)C1CC1 [I-T7-03] | 100% | 100% |  | 
3 | CN(Cc1cc(-c2cnn(-c3c(Cl)cc(C(F)(C(F)(F)F)C(F)(F)F)cc3Cl)c2)ccc1Cl)C(=O)C1CC1 [Ia-24] | 100% | 100% |  | 
4 | CC(=O)NCc1cc(-c2cnn(-c3c(Cl)cc(C(F)(C(F)(F)F)C(F)(F)F)cc3Cl)c2)ccc1Br [Ia-164] | 100% | 100% | 100% | 
5 | CC(=O)NCc1cc(-c2cnn(-c3c(Cl)cc(C(F)(C(F)(F)F)C(F)(F)F)cc3OC(F)(F)F)c2)ccc1F [Ia-06] | 100% | 100% |  | 
6 | CC(=O)NCc1cc(-c2cnn(-c3c(F)cc(C(F)(C(F)(F)F)C(F)(F)F)cc3Br)c2)ccc1Cl [Ia-92] | 100% | 100% | 100% | 
7 | O=C(NCc1cc(-c2cnn(-c3c(Cl)cc(C(F)(C(F)(F)F)C(F)(F)F)cc3Cl)c2)ccc1Cl)C(F)F [Ia-119] | 100% | 100% | 100% | 
8 | CCC(=O)NCc1cc(-c2cnn(-c3c(Cl)cc(C(F)(C(F)(F)F)C(F)(F)F)cc3Cl)c2)ccc1C [Ia-81] |  | 100% | 100% | 
9 | CCC(=O)NCc1cc(-c2cnn(-c3c(Cl)cc(C(F)(C(F)(F)F)C(F)(F)F)cc3Cl)c2)ccc1Br [Ia-166] | 100% | 100% | 100% | 
10 | CCC(=O)NCc1cc(-c2cnn(-c3c(Cl)cc(C(F)(C(F)(F)F)C(F)(F)F)cc3C#N)c2)ccc1C [Ia-101] | 100% | 100% |  | 
11 | CCC(=O)NCc1cc(-c2cn(-c3c(Cl)cc(C(F)(C(F)(F)F)C(F)(F)F)cc3Cl)nn2)ccc1Cl [I-T7-02] | 100% | 100% |  | 
12 | CC(=S)N(C)Cc1cc(-c2cnn(-c3c(Cl)cc(C(F)(C(F)(F)F)C(F)(F)F)cc3Cl)c2)ccc1Cl [Ia-163] | 100% | 83% | 100% | 
13 | CC(=O)NCc1cccc(-c2cnn(-c3c(Cl)cc(C(F)(C(F)(F)F)C(F)(F)F)cc3Cl)c2)c1F [Ia-153] | 100% |  |  | 
14 | Cc1cc(C(F)(C(F)(F)F)C(F)(F)F)cc(Cl)c1-n1cc(-c2cccc(CNC(=O)C3CC3)c2)cn1 [Ia-70] | 100% |  |  | 
15 | CCC(=O)NCc1cc(-c2cnn(-c3c(Cl)cc(C(F)(C(F)(F)F)C(F)(F)F)cc3Cl)c2)c(F)cc1Cl [Ia-111] | 100% | 100% | 100% | 
16 | CCC(=O)NCc1cc(-c2cnn(-c3c(Cl)cc(C4(C(F)(F)F)CC4)cc3Cl)c2)ccc1F [Ia-123] | 100% | 83% |  | 
17 | CS(=O)(=O)c1cc(C(F)(C(F)(F)F)C(F)(F)F)cc(Cl)c1-n1cc(-c2ccc(F)c(CNC(=O)C3CC3)c2)cn1 [Ia-44] | 100% |  | 100% | 
18 | CC(=O)N(C)Cc1cc(-c2cnn(-c3c(Cl)cc(C(F)(C(F)(F)F)C(F)(F)F)cc3Cl)c2)c(F)cc1Cl [Ia-110] | 100% | 100% |  | 
19 | O=C(NCc1cc(-c2cnn(-c3c(Cl)cc(C(F)(C(F)(F)F)C(F)(F)F)cc3Cl)c2)ccc1Cl)C(F)(F)F [Ia-120] | 100% | 100% | 100% | 
20 | CC(=O)NCc1cccc(-c2cnn(-c3c(Cl)cc(C(F)(C(F)(F)F)C(F)(F)F)cc3Cl)c2)c1 [Ia-09] | 100% | 100% | 90% | 

Row | Compound | efficacy (Phaedon cochleariae) | efficacy (Spodoptera frugiperda; 100 g/ha) | efficacy (Tetranychus urticae) | efficacy (Spodoptera frugiperda; 20 g/ha)
21 | CCC(=O)NCc1cc(-c2cn(-c3c(Cl)cc(C(F)(C(F)(F)F)C(F)(F)F)cc3Cl)cn2)ccc1F [I-T2-03] | 100% |  |  | 
22 | CCC(=O)N(C)Cc1cc(-c2cnn(-c3c(Cl)cc(C(F)(C(F)(F)F)C(F)(F)F)cc3OC(F)(F)F)c2)ccc1Cl [Ia-87] | 100% | 100% | 100% | 
23 | CCC(=O)NCc1cc(-c2cnn(-c3c(Cl)cc(C(F)(C(F)(F)F)C(F)(F)F)cc3C#N)c2)ccc1F [Ia-103] | 100% | 100% |  | 
24 | CCN(Cc1cc(-c2cnn(-c3c(Cl)cc(C(F)(C(F)(F)F)C(F)(F)F)cc3Cl)c2)ccc1Cl)C(C)=O [Ia-109] | 100% | 100% | 100% | 
25 | N-[1-(2-chloro-5-{1-[2,6-dichloro-4-(1,1,1,2,3,3,3-heptafluoropropan-2-yl)phenyl]-1H-pyrazol-4-yl}phenyl)ethyl]propanamide [Ia-47] | 100% | 83% |  | 
26 | CCC(=O)NCc1cc(-c2cnn(-c3c(Cl)cc(C(F)(C(F)(F)F)C(F)(F)F)cc3C#N)c2)ccc1Cl [Ia-114] | 100% | 100% |  | 
27 | CCC(=O)N(C)Cc1cc(-c2cnn(-c3c(Cl)cc(C(F)(C(F)(F)F)C(F)(F)F)cc3OC(F)(F)F)c2)ccc1F [Ia-27] | 100% | 100% | 100% | 
28 | CC(=O)NCc1cc(-c2cn(-c3c(Cl)cc(C(F)(C(F)(F)F)C(F)(F)F)cc3Cl)cn2)ccc1F [I-T2-01] | 100% |  |  | 
29 | CCC(=O)NC(C)c1cc(-c2cnn(-c3c(Cl)cc(C(F)(C(F)(F)F)C(F)(F)F)cc3Cl)c2)ccc1F (stereo not shown) [Ia-50] |  | 100% |  | 
30 | CC(=O)NCc1cc(-c2cnn(-c3c(Cl)cc(C4(C(F)(F)F)CC4)cc3Cl)c2)ccc1F [Ia-124] | 100% |  |  | 
31 | C[S+]([O-])c1cc(C(F)(C(F)(F)F)C(F)(F)F)cc(Cl)c1-n1cc(-c2ccc(F)c(CNC(=O)C3CC3)c2)cn1 (stereo not shown) [Ia-43] | 100% |  | 90% | 83%
32 | CCC(=O)NCc1cc(-c2cnn(-c3c(F)cc(C(F)(C(F)(F)F)C(F)(F)F)cc3Br)c2)ccc1Cl [Ia-94] | 100% | 100% |  | 
33 | CCC(=O)NCc1cc(-c2cnn(-c3c(Cl)cc(C(F)(C(F)(F)F)C(F)(F)F)cc3OC(F)(F)F)c2)ccc1Cl [Ia-86] | 100% | 100% |  | 
34 | O=C(CC(F)(F)F)NCc1cccc(-c2cnn(-c3c(Cl)cc(C(F)(C(F)(F)F)C(F)(F)F)cc3Cl)c2)c1 [Ia-21] | 100% | 100% |  | 
35 | O=S(=O)(NCc1cc(-c2cnn(-c3c(Cl)cc(C(F)(C(F)(F)F)C(F)(F)F)cc3Cl)c2)ccc1Cl)c1ccccc1 [Ic-05] | 100% | 100% |  | 
36 | CC(=O)NC(C)c1cc(-c2cnn(-c3c(Cl)cc(C(F)(C(F)(F)F)C(F)(F)F)cc3Cl)c2)ccc1F (stereo not shown) [Ia-49] | 100% | 100% |  | 
37 | CC(C)(C)C(=O)NCc1cc(-c2cnn(-c3c(Cl)cc(C(F)(C(F)(F)F)C(F)(F)F)cc3C(F)F)c2)ccc1F [Ia-62] | 100% |  |  | 
38 | CCC(=O)N(C)Cc1cc(-c2cnn(-c3c(Cl)cc(C(F)(C(F)(F)F)C(F)(F)F)cc3Cl)c2)ccc1C(F)(F)F [Ia-78] | 100% |  |  | 
39 | CCC(=O)NCc1cccc(-c2cnn(-c3c(Cl)cc(C(F)(C(F)(F)F)C(F)(F)F)cc3C#N)c2)c1 [Ia-97] | 100% |  |  | 

From US10357036B2, “Compounds for controlling arthropods” (priority 2015, dated 2019)
